Experimental data taken from patent publication US20130123285A1, “Compositions and Methods for Targeting A3G:RNA Complexes” (UNIVERSITY OF ROCHESTER, priority 2010, published 2013).

Assays:
[1] = system: pseudotyped HIV in TZM-bl cells; assay: Single round infectivity of pseudotyped HIV in wild type TZM-bl cells; format: cell-based; conditions: viruses +/- Vif
Text: (§1) Viral particles were harvested from media of producer cells, normalized based on p24 content and equal number of virus particles were used to infect wild type TZM-bl or TZM-bl-A3G cells. […] However, HIV replication and, consequently Tat expression, are anticipated to be inhibited if dissolution of HMM by A3G activators was able to stimulate host defense.

A3G:RNA complexes = target: T1, A3G:RNA complexes (Homo sapiens, UniProt Q9HC16); assay: EMSA of A3G:RNA complexes assembled on radiolabeled RNA (disaggregation of HMM); format: binding; conditions: range of concentrations
T1 construct: polyhistidine (C); made in house; host or cells: Baculovirus-infected Sf9 insect cells
Procedure: The Electrophoretic Gel Mobility Shift Assay (EMSA) provides a visual and quantitative measure of the efficiency of A3G-RNA complex formation. EMSA was used initially to determine the optimum buffer conditions, molar ratio of A3G to RNA as well as the temperature and the duration of the complex assembly reaction.
The four compounds depicted in FIG. 7 were evaluated for their ability to disaggregate A3G:RNA complexes by treating A3G:RNA complexes assembled on radiolabeled RNA with each chemistry over a range of concentrations and then evaluated for size reduction of HMM by EMSA.

[2] = target: T2, HMM A3G (A3G:RNA complexes assembled in cells) (Homo sapiens, UniProt Q9HC16); assay: In vitro deaminase activity of HMM isolated from TZM-bl-A3G cells; format: biochemical; conditions: 20 μM
T2 construct: expressed in transfected cells; host or cells: TZM-bl cells stably transfected with A3G cDNA (TZM-bl-A3G); The HMM fraction was isolated from cell extracts by size exclusion chromatography
Procedure: Experiments were performed to directly test whether the compounds could activate antiviral activity from HMM in living cells. For this a cell line that expressed A3G as HMM was created. TZM-bl reporter cells were transfected with A3G cDNA and a cell line with stable expression of A3G was selected (TZM-bl-A3G). To verify HMM A3G, cell extracts were prepared from TZM-bl-A3G cells and fractionated by size exclusion chromatography. […] Isolated HMM had low levels of in vitro deaminase activity (4% dC to dU) that could be activated 10-fold by RNase digestion (FIG. 12, top panel). Treatment of HMM with 20 μM Clonidine and Altanserin activated A3G deaminase activity 6- and 8-fold respectively compared to untreated HMM (FIG. 12, bottom panel).

A3G = target: T3, A3G (Homo sapiens, UniProt Q9HC16); assay: In vitro DNA deaminase activity of purified A3G; format: biochemical; conditions: purified A3G treated at varying concentrations
T3 construct: polyhistidine (C); made in house; host or cells: Baculovirus-infected Sf9 insect cells

[3] = system: pseudotyped HIV in TZM-bl-A3G cells; assay: microbe, parasite or virus in culture; format: cell-based
Text: as §1

APOBEC3G (hA3G) = APOBEC3G (hA3G) (Homo sapiens, UniProt Q9HC16 Q9HC16:1-384); assay: EMSA; Kd stated for optimal AU-rich RNA with G or C every fourth nucleotide; 99 nt RNA selected for the assay; conditions: tags: C-terminal polyhistidine tag
Procedure: Experiments were performed to determine what length and sequence of nonspecific RNA would yield the most efficient formation of A3G:RNA complexes. A3G was expressed using the Baculovirus system and purified by nickel affinity chromatography. RNAs varying in GC and AU content were synthesized chemically or transcribed in vitro in lengths varying from 10 to 99 nucleotides (nt). A3G:RNA complexes were assembled in vitro with these RNAs over a range of A3G concentrations and the yield of small and large complexes determined by electrophoretic mobility shift on native gels (EMSA). […] A 99 nt RNA was selected for the HTS assay. The RNA used for the following data had the sequence: […]

T1 sequence (Q9HC16 whole entry, one chain of several): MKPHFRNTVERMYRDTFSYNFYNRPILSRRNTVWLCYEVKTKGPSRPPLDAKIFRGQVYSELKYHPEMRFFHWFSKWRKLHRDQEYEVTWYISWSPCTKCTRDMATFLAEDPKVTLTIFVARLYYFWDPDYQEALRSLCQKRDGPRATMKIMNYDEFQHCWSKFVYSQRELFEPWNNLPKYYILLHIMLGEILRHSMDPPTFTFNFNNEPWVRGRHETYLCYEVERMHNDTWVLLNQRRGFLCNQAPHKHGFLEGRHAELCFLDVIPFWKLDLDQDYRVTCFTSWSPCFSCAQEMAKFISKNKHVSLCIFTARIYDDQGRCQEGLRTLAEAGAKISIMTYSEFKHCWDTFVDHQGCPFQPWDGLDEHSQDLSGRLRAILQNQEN
T3 sequence (Q9HC16 whole entry): as the sequence (Q9HC16 whole entry, one chain of several) above
T2 sequence (Q9HC16 whole entry, one chain of several): as above
Chain of APOBEC3G (hA3G) (Q9HC16 whole entry, one chain of several): as above

Molecule	antiviral activity in TZM-bl cells [1]	dissolution of A3G:RNA aggregates (HMM) by EMSA (A3G:RNA complexes)	activation of A3G deaminase activity compared to untreated HMM [2]	inhibition of A3G deaminase activity (A3G)	inhibition at 20 µM ([3]; Human immunodeficiency virus 1, read-out: inhibition of viral infectivity)	antiviral activity in TZM-bl-A3G cells ([3]; viruses +/- Vif)	Kd (APOBEC3G (hA3G))
Clc1cccc(Cl)c1N=C1NCCN1 [Clonidine]	not in TZM-bl cells	dose-dependent dissolution of A3G:RNA aggregates to faster migrating lower molecular mass (LMM) complexes	6 fold	none of the hits inhibited A3G deaminase activity	–	–	–
O=C(c1ccc(F)cc1)C1CCN(CCn2c(=S)[nH]c3ccccc3c2=O)CC1 [Altanserin]	not in TZM-bl cells	completely dissociate RNA from a portion of the A3G complexes	8 fold	none of the hits inhibited A3G deaminase activity	> 40%	induced antiviral activity in TZM-bl-A3G cells	–
99 nt nonspecific AU-rich RNA (ssRNA) RNA: GGGAACAAAAGCUGGGUACCGGGCCCCCCCUCGAGGUCGAUGCAGACAUAUAUGAUACAAUUUGAUCAGUAUAUUAAAGAUAGUUAUGAUUUACAAGCU	–	–	–	–	–	–	30 nM
